Data on 26 compounds can be found in patent publication US20140128385A1 (NOVARTIS AG, priority 2011, published 2014).

Where a name gives a salt, the structure may show the parent alone.

For this assay, the target named is T1, BACE-2 (Homo sapiens, UniProt Q9Y5Z0).
T1 construct: Recombinant BACE-2 (extracellular domain, expressed in baculovirus and purified using standard methods); made in house
T1 sequence (Q9Y5Z0 63-473 limits assumed): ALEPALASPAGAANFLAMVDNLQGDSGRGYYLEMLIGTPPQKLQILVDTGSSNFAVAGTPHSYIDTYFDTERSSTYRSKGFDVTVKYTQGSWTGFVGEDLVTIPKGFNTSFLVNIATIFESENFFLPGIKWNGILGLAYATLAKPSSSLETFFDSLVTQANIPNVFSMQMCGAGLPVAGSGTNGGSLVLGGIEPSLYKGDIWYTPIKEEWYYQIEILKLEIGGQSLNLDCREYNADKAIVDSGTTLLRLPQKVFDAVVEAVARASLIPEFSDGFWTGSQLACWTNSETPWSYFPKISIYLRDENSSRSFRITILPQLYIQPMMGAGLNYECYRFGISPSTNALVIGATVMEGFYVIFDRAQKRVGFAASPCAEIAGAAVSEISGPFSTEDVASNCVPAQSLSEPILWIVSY
The experiment in a line: assay for inhibition of BACE-2. The class given is biochemical.
In the case of `[2H]C([2H])([2H])Oc1cnc(C(=O)Nc2ccc(F)c([C@]3(C(F)F)COCC(N)=N3)c2)c(C)c1` [Example 227], the IC50 (in general, the point on the concentration scale where inhibition reaches its midpoint) is 64 nM.
Then `C[C@@]1(c2cccc(NC(=O)c3ccc(Br)cn3)c2)COCC(N)=N1` [Example 3, 5-Bromo-pyridine-2-carboxylic acid [3-((R)-5-amino-3-methyl-3,6-dihydro-2H-[1,4]oxazin-3-yl)-phenyl]-amide hydrochloride], with 56 nM; and `C[C@@]1(c2cc(NC(=O)c3ncc(Cl)cc3N)ccc2F)CO[C@@](C)(C(F)(F)F)C(N)=N1` [Example 153, 3-Amino-5-chloro-pyridine-2-carboxylic acid [3-((3R,6R)-5-amino-3,6-dimethyl-6-trifluoromethyl-3,6-dihydro-2H-[1,4]oxazin-3-yl)-4-fluoro-phenyl]-amide hydrochloride], with 3 nM; and `NC1=NC(c2cccc(NC(=O)c3ncc(C(F)(F)F)cc3Cl)c2)(C(F)F)COC1` (centres unmarked) [Example 40], with 2450 nM.
Then `NC1=N[C@@](c2cc(NC(=O)c3ccc(Br)cn3)ccc2F)(C(F)F)CCOC1` [Example 97], with 11 nM; and `COc1cc(Br)cnc1C(=O)Nc1ccc(F)c([C@]2(CF)COCC(N)=N2)c1` [Example 95], with 53 nM.
Then “5-Bromo-pyridine-2-carboxylic acid[3-((S)-3-amino-5-difluoromethyl-2,5,6,7-tetrahydro-[1,4]oxazepin-5-yl)-4-fluoro-phenyl]-amide hydrochloride [Example 96]”, with 44 nM.
`CC(C)N1CC(C)(c2cc(NC(=O)c3ccc(Br)cn3)ccc2F)N=C(N)C1=O` (centres unmarked) [Example 194, 5-Bromo-pyridine-2-carboxylic acid [3-(6-amino-4-isopropyl-2-methyl-5-oxo-2,3,4,5-tetrahydro-pyrazin-2-yl)-4-fluoro-phenyl]-amide hydrochloride]: the IC50 was 47 nM. The IC50 values of the last two compounds are within 1.5-fold of each other.
Then `COc1cnc(C(=O)Nc2ccc(F)c([C@]3(C(F)F)COCC(N)=N3)c2)c(C)n1` [Example 174, 5-Methoxy-3-methyl-pyrazine-2-carboxylic acid [3-((R)-5-amino-3-difluoromethyl-3,6-dihydro-2H-[1,4]oxazin-3-yl)-4-fluoro-phenyl]-amide hydrochloride], with 276 nM.
In the case of `CC1(c2cc(NC(=O)c3ncc(C(F)(F)F)cc3Cl)ccc2F)N=C(N)COCC1(F)F` (centres unmarked) [Example 154, 3-Chloro-5-trifluoromethyl-pyridine-2-carboxylic acid [3-(3-amino-6,6-difluoro-5-methyl-2,5,6,7-tetrahydro-[1,4]oxazepin-5-yl)-4-fluoro-phenyl]-amide], the IC50 amounted to 408 nM.
Then `NC1=N[C@@](c2cc(NC(=O)c3ncc(Br)cc3Cl)ccc2F)(C(F)F)COC1` [Example 117], with 13 nM; and `Cc1cc(Cl)cnc1C(=O)Nc1ccc(F)c([C@]2(C(F)F)COCC(N)=N2)c1` [Example 44], with 5 nM; and `Cc1cc(C(N)=S)cnc1C(=O)Nc1cc(C2(CF)COCC(N)=N2)ccn1` (centres unmarked) [Example 271, 5-Fluoromethyl-5-{2-[(3-methyl-5-thiocarbamoyl-pyridine-2-carbonyl)-amino]-pyridin-4-yl}-5,6-dihydro-2H-[1,4]oxazin-3-yl-ammonium trifluoro-acetate], with greater than 10000 nM.
Then `NC(=S)c1ccc(C(=O)Nc2cccc(C3(CF)COCC(N)=N3)n2)nc1` (centres unmarked) [Example 263], with 8660 nM; and `COc1cnc(C(=O)Nc2ccc(F)c([C@]3(C)CO[C@@](C)(C(F)(F)F)C(N)=N3)c2)c(Cl)c1` [Example 232, 3-Chloro-5-methoxy-pyridine-2-carboxylic acid [3-((3R,6R)-5-amino-3,6-dimethyl-6-trifluoromethyl-3,6-dihydro-2H-[1,4]oxazin-3-yl)-4-fluoro-phenyl]-amide hydrochloride], with 7 nM; and `CC#CCOc1cnc(C(=O)Nc2ccc(F)c([C@]3(C(F)F)COCC(N)=N3)c2)c(C)n1` [Example 182, 5-But-2-ynyloxy-3-methyl-pyrazine-2-carboxylic acid [3-((R)-5-amino-3-difluoromethyl-3,6-dihydro-2H-[1,4]oxazin-3-yl)-4-fluoro-phenyl]-amide hydrochloride], with 171 nM.
`Cl.[2H]c1nc(C(=O)Nc2ccc(F)c([C@]3(CF)COCC(N)=N3)c2)c(C([2H])([2H])[2H])c([2H])c1Cl` [Example 93] yielded an IC50 of 1.4 nM.
The same measure for `Cc1cc(OC(F)F)cnc1C(=O)Nc1ccc(F)c([C@]2(C(F)F)COCC(N)=N2)c1` [Example 176, 5-Difluoromethoxy-3-methyl-pyridine-2-carboxylic acid [3-((R)-5-amino-3-difluoromethyl-3,6-dihydro-2H-[1,4]oxazin-3-yl)-4-fluoro-phenyl]-amide hydrochloride]: 183 nM; for `CC(=O)N1CC(N)=NC(c2cc(NC(=O)c3ncc(Br)cc3C)ccc2F)(C(F)F)C1` (centres unmarked) [Example 206, 5-Bromo-3-methyl-pyridine-2-carboxylic acid [3-(4-acetyl-6-amino-2-difluoromethyl-2,3,4,5-tetrahydro-pyrazin-2-yl)-4-fluoro-phenyl]-amide]: 4 nM; for `NC1=N[C@](CF)(c2cc(NC(=O)c3ncc(Br)cc3O)ccc2F)COC1` [Example 94]: 33 nM.
Then `Cl.[2H]c1nc(C(=O)Nc2ccc(F)c([C@]3(C(F)F)COCC(N)=N3)c2)c(C([2H])([2H])[2H])c([2H])c1C#N` [Example 147], with 165 nM; and `COCCOc1cnc(C(=O)Nc2ccc(F)c([C@]3(C(F)F)COCC(N)=N3)c2)cn1` [Example 135], with 1090 nM; and `NC1=NC(CF)(c2cc(NC(=O)c3ccc(Br)cn3)ccc2F)COC1` (centres unmarked) [Example 86], with 32 nM.
Compound `CC1(c2cccc(NC(=O)c3ccc(Br)cn3)n2)COCC(N)=N1` (racemic) [Example 258, 5-Bromo-pyridine-2-carboxylic acid [6-(5-amino-3-methyl-3,6-dihydro-2H-[1,4]-oxazin-3-yl)-pyridin-2-yl]-amide] showed an IC50 of 363 nM.
The same measure for `NC1=NC(CF)(c2cc(Cl)cc(NC(=O)c3ccc(Br)cn3)c2)COC1` (centres unmarked) [Example 32]: 1020 nM.
Then `CC1(c2cc(NC(=O)c3ccc(Br)cn3)ccc2F)N=C(N)COCC1(F)F` (centres unmarked) [Example 101], with 26 nM.
